Assay results as given in ChEMBL document CHEMBL1201862, “PubChem BioAssay data set” (2004).
Calls of active or inactive are those of the source.

Tests used:
[1] = molecular target: Photoreceptor-specific nuclear receptor (Homo sapiens, UniProt Q9Y5X4); assay: ligands suppressing NR2E3 nuclear receptor activity – biochemical, TR-FRET, dose response (AID 463256); format: functional
[2] = molecular target: Peroxisome proliferator-activated receptor gamma/Nuclear receptor corepressor 2 (Homo sapiens, UniProt P37231+Q9Y618); assay: Counterscreen for NR2E3 inverse agonists: TR-FRET-based biochemical high throughput dose response assay to identify inverse agonists of the interaction between peroxisome proliferator-activated receptor gamma (PPARg) and nuclear receptor co-repressor 2 (NCOR2).; format: functional
Chain of Peroxisome proliferator-activated receptor gamma/Nuclear receptor corepressor 2 (P37231 whole entry): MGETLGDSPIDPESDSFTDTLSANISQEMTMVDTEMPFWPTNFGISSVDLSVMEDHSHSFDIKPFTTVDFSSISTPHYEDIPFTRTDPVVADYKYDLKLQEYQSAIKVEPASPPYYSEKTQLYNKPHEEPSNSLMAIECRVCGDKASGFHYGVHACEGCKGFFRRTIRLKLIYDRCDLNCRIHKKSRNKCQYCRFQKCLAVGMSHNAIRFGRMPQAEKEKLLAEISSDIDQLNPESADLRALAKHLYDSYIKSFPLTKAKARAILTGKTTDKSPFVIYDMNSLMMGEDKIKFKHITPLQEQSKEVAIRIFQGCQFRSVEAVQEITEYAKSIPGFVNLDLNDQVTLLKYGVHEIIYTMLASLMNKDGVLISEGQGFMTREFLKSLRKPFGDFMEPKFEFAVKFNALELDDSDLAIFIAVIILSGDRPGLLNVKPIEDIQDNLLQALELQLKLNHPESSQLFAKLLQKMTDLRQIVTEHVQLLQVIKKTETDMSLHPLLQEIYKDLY
Chain of Peroxisome proliferator-activated receptor gamma/Nuclear receptor corepressor 2 (Q9Y618 whole entry): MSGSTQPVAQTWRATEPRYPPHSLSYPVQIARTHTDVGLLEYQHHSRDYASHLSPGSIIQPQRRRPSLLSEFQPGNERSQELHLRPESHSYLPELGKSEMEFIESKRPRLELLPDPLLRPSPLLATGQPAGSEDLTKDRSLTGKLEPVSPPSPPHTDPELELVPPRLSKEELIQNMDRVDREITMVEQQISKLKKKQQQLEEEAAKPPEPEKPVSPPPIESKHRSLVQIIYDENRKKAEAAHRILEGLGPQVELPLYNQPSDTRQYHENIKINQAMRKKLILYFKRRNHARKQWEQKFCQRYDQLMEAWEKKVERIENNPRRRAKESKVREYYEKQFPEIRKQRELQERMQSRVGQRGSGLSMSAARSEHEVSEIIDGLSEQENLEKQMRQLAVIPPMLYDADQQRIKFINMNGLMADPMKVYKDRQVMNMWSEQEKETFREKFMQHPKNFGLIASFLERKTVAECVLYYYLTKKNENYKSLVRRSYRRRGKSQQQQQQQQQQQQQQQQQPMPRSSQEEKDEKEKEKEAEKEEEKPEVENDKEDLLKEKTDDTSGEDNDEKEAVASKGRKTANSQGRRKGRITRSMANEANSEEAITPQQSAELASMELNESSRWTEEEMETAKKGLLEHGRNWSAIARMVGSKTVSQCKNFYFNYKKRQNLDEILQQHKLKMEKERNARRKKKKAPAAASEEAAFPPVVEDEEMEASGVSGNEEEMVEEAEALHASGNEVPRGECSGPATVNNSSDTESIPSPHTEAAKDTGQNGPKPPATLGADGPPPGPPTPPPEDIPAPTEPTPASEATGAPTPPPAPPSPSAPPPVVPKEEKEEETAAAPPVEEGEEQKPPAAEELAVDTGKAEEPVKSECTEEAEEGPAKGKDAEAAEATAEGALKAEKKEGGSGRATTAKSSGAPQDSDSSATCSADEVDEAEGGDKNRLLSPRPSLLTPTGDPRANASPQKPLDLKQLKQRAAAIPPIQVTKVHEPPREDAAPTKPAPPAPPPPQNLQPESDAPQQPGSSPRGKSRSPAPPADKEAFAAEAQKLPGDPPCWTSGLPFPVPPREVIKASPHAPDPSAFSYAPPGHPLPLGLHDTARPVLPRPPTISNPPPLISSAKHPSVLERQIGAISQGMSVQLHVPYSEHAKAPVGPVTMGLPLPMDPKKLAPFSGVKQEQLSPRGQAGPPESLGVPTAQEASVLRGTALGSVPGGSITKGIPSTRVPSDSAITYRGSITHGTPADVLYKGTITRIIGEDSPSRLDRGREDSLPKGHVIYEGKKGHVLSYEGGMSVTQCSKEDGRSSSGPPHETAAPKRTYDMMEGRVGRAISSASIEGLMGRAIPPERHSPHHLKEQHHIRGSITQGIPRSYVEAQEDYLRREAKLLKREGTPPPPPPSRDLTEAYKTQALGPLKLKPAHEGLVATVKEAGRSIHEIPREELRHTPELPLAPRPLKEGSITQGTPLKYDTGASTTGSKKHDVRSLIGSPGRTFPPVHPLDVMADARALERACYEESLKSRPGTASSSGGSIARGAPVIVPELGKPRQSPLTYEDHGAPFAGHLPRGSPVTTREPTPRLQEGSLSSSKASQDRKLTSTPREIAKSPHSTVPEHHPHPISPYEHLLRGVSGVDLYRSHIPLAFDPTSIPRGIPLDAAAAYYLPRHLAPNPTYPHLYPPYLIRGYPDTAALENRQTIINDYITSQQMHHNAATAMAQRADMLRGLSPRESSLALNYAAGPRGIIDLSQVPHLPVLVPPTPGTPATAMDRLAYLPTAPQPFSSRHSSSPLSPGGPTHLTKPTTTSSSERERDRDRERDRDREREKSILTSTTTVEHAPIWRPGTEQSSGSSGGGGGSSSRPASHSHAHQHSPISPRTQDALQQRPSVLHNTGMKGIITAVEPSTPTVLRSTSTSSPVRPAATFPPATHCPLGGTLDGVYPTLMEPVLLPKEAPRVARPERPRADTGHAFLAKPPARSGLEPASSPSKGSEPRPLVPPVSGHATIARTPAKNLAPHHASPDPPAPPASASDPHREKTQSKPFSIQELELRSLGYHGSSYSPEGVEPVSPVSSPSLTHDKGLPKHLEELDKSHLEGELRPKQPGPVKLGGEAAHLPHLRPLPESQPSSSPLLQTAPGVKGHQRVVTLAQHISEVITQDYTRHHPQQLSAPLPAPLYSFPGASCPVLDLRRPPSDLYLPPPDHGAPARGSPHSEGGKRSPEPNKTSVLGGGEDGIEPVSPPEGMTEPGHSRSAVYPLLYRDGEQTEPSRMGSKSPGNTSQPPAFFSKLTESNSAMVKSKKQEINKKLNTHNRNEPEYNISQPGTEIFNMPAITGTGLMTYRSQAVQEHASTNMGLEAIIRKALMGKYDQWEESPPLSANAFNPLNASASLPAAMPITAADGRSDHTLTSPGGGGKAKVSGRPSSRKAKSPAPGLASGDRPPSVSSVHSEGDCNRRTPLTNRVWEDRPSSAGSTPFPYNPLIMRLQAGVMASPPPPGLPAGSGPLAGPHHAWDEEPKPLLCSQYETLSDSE

[3] = cells; format: functional, cell-based
[4] = test system: BJ; assay: cells; format: functional, cell-based; details: Homo sapiens
[5] = test system: BJ; assay: BJ-TERT fibroblast viability loss – cell-based, RAS-independent, luminescence, dose response (AID 1933); format: functional; details: Homo sapiens
[6] = alpha-synuclein stem-loop translation blockers – luminescence, H4 neuroglioblastoma cells, dose confirmation, confirmation (AID 2454); format: functional, cell-based;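 further: H4 neuroglioblastoma cells carrying an alpha-synuclein 5'UTR luciferase reporter; potency for inhibition of the luciferase signal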
[7] = DRD fibroblast viability loss – cell-based, non-viral oncogenic, luminescence, dose response (AID 1934); format: functional; details: Homo sapiens
[8] = luciferase reporter signal reduction – luminescence, H4-C neuroglioblastoma cells, dose response (AID 2458); format: functional, cell-based;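 further: H4 neuroglioblastoma cells stably carrying a luciferase reporter gene fusion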
[9] = alpha-synuclein stem-loop luciferase translation blockers – H4 neuroglioma cells, luminescence, confirmation (AID 1988); format: functional, cell-based
[10] = test system: BJ; assay: BJ-TERT-LT-ST fibroblast viability loss – cell-based, RAS-independent, luminescence, dose response (AID 1935); format: functional; details: Homo sapiens;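 further: BJ fibroblasts immortalized with TERT plus LT and ST oncogenes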
[11] = cells
[12] = molecular target: T1, Oxysterols receptor LXR-beta (Homo sapiens, UniProt P55055); format: functional, cell-based;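 further: Cell-based luminescence dose-response assay of agonist activity at LXR, run as a confirmatory counterscreen to a daf-12 agonist screen; HEK293 cells with Gal4-LXR fusion and GAL4-driven luciferase reporter; agonist potency from rising luciferase signal of a Gal4-LXR reporter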
T1 sequence (P55055 whole entry): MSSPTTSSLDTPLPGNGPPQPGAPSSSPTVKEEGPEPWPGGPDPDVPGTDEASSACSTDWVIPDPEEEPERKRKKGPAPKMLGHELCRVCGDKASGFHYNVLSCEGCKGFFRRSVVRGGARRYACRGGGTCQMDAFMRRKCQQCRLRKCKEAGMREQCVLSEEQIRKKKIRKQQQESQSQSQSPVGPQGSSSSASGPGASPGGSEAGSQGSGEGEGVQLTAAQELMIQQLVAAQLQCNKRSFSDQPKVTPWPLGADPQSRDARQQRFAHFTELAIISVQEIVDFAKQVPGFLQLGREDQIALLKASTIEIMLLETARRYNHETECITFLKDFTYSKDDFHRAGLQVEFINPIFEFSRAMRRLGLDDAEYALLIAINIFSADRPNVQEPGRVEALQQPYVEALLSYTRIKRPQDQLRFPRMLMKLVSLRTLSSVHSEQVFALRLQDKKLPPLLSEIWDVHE

[13] = test system: HT-1080; assay: HT1080 cell viability loss – fluorescence readout (AID 620); format: functional, cell-based; details: Homo sapiens
[14] = molecular target: Luciferin 4-monooxygenase (Photinus pyralis, UniProt P08659); assay: Counter Screen for Luciferase-based Assay Positives. [Related pubchem assays: 620, 618, 411 ]
Chain of Luciferin 4-monooxygenase (P08659 whole entry): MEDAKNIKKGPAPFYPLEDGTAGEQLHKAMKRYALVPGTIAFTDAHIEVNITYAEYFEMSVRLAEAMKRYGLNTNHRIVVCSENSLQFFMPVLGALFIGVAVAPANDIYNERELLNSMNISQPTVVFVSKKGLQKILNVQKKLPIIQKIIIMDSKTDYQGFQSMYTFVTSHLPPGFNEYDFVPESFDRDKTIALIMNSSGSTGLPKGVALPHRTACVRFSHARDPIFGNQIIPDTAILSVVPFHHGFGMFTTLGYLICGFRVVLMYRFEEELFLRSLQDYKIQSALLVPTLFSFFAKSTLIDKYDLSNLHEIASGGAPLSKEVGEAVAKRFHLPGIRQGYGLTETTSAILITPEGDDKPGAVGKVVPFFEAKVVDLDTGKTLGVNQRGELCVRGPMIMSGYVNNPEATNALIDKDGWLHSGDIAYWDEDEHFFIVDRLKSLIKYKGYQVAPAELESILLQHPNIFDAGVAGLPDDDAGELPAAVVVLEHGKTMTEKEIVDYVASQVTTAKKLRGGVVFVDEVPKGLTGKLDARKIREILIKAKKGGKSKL

[15] = test system: CHO-K1; assay: (§1) Counterscreen for antagonists of the orexin 1 receptor (OX1R; HCRTR1): Homogeneous time resolved fluorescence (HTRF)-based cell-based dose response assay to identify antagonists of the parental CHO-K1 cell line. [Related pubchem assays (depositor defined):AID434989, AID435008, AID463079, AID485270, AID492963, AID492964, AID492965, AID493232, AID504699, AID504701]; format: functional; details: Cricetulus griseus
[16] = molecular target: T2, Orexin/Hypocretin receptor type 1 (Homo sapiens, UniProt O43613); assay: (§2) Fluorescence-based cell-based high throughput dose response assay for antagonists of the orexin 1 receptor (OX1R; HCRTR1). [Related pubchem assays (depositor defined):AID434989, AID435008, AID463079, AID485270, AID492963, AID492964, AID492965, AID493232, AID504717, AID504718]; format: functional
T2 sequence (O43613 whole entry): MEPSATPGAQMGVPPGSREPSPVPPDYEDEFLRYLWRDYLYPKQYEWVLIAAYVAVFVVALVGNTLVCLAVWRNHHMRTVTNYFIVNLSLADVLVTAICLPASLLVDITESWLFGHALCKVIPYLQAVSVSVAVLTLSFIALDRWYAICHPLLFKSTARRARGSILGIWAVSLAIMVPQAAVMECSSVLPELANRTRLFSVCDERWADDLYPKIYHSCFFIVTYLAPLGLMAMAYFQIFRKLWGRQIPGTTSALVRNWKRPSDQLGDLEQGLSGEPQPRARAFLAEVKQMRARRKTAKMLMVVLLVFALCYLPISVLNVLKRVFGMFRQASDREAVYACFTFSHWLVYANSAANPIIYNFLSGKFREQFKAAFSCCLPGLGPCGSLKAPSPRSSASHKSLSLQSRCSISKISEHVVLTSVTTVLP

[17] = as §1, with “Fluorescence-based” for “Homogeneous time resolved fluorescence (HTRF)-based”, “cell-based high throughput” for “cell-based”, “CHO” for “CHO-K1”; format: functional
[18] = molecular target: T3, Orexin receptor type 2 (Homo sapiens, UniProt O43614); assay: Counterscreen assay for antagonists of the orexin 1 receptor (OX1R; HCRTR1): Homogeneous Time Resolved Fluorescence (HTRF)-based cell-based dose response assay for antagonists of the orexin 2 receptor (OX2R; HCRTR2), run by assay provider.; format: functional
T3 sequence (O43614 whole entry): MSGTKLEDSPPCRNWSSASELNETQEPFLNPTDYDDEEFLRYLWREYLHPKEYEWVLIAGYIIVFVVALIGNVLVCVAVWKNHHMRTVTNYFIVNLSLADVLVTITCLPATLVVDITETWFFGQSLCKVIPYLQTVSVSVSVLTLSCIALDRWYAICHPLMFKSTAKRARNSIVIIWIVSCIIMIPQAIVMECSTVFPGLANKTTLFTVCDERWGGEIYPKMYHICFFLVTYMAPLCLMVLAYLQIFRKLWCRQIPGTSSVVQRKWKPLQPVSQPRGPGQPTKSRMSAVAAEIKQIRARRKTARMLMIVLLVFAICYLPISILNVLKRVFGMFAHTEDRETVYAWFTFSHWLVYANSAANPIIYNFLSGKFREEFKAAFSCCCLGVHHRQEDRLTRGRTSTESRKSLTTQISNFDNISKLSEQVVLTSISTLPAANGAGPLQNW

[19] = molecular target: T4, Mannose-6-phosphate isomerase (Homo sapiens, UniProt P34949); assay: MPI enzyme activity inhibition – biochemical, fluorescence intensity, coupled assay, primary screen (AID 1209)
T4 sequence (P34949 whole entry): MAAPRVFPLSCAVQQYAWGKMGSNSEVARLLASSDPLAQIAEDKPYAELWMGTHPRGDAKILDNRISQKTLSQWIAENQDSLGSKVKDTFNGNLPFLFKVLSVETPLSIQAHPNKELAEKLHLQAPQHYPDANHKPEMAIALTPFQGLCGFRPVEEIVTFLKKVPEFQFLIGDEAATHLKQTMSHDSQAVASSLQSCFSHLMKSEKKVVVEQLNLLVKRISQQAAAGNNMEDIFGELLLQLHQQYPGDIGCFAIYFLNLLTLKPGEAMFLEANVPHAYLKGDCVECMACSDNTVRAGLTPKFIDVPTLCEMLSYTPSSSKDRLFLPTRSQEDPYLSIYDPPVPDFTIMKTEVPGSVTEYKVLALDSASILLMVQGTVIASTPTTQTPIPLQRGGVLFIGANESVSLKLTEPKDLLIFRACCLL

[20] = molecular target: T3, Orexin receptor type 2; assay: Counterscreen assay for antagonists of the orexin 1 receptor (OX1R; HCRTR1): Fluorescence-based cell-based dose response assay for antagonists of the orexin 2 receptor (OX2R; HCRTR2), run by assay provider.; format: functional
[21] = molecular target: T2, Orexin/Hypocretin receptor type 1; assay: as §2, with “Homogeneous Time Resolved Fluorescence (HTRF)-based” for “Fluorescence-based”; format: functional
[22] = Luminescence Cell-Based Dose Retest to Confirm Inhibitors of Cancer Stem Cells. [Related pubchem assays (depositor defined):AID2717, AID2721]; format: functional; details: Homo sapiens
[23] = molecular target: T4, Mannose-6-phosphate isomerase; assay: MPI inhibition at elevated mannose 6-phosphate – biochemical, fluorescence intensity, high mannose 6-phosphate, primary screen (AID 1220)
[24] = test system: Streptococcus; assay: GAS UMAA2166 growth inhibition – luminescence, BacTiterGlo, counter-screen for streptokinase expression inhibitor project, dose response (AID 1915); format: functional, organism-based;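 further: potency for reduction of bacterial viability or growth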
[25] = molecular target: T5, Streptokinase A (Streptococcus pyogenes serotype M1, UniProt P10520); assay: viability-normalized secreted streptokinase activity reduction – plasminogen activation absorbance, OD405, dose response (AID 1914); format: functional, Streptococcus pyogenes M1 GAS;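 further: secreted streptokinase activity via plasminogen activation per viability signal from cell pellet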
T5 sequence (P10520 whole entry): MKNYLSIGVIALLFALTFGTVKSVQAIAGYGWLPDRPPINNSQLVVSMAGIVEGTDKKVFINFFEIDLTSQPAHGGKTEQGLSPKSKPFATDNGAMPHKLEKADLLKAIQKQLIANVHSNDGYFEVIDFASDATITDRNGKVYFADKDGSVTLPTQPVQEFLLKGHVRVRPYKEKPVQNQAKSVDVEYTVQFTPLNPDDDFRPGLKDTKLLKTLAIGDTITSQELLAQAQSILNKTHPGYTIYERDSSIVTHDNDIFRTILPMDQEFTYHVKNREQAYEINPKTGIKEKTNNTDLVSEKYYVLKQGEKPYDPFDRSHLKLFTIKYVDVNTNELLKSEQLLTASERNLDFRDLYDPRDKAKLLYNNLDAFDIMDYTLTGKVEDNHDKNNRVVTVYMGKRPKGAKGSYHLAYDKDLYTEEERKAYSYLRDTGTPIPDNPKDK

[26] = reduced cellular PGC1a acetyl-lysine signal – cell-based, cherry-picked samples, dose response (AID 720514); format: functional;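 further: potency may reflect raised or lowered acetylation signal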
[27] = viability of uninfected HEp-2 cells – cell-based, HTS, cytotoxicity control for RSV inhibitor project, dose response (AID 2410); format: functional; details: human respiratory syncytial virus
[28] = test system: Streptococcus sp. 'group A'; assay: Streptococcus pyogenes SK(-)GAS viability under kanamycin – luminescence, BacTiterGlo, confirmation, counter-screen for streptokinase expression inhibitor project, dose response (AID 1900); format: functional, organism-based
[29] = P. falciparum Dd2 growth inhibitors, dose response, SYBR Green, cherry-picked samples (AID 1159567); format: functional, cell-based
[30] = growth inhibition of yeast DHODH-expressing 3D7 parasites – SYBR Green, dry powder samples, dose response (AID 1159570); format: functional, cell-based;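 further: parasite growth measured after 72 hours of compound exposure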
[31] = Dd2 malaria parasite growth inhibition potency – SYBR Green, dry powder samples, dose response (AID 1159566); format: functional, cell-based;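 further: potency for growth inhibition with lower SYBR green DNA signal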
[32] = toxicity to human HepG2 hepatoma cells – cell-based, plate reader, dry powder samples, cytotoxicity control, dose response (AID 1159569); format: functional;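 further: inhibitor potency with signal falling toward the positive control level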
[33] = growth inhibition of PfATP4-mutant resistant parasites – NITD609-resistant line, SYBR Green, dry powder, dose response (AID 1159571); format: functional, cell-based;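 further: parasites synchronized at ring stage by sorbitol before testing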
[34] = rise of 2N DNA cells, HeLa – IC50, dose response (AID 1117349); format: functional, cell-based
[35] = rise of 4N DNA cells, HeLa – IC50, dose response (AID 1117351); format: functional, cell-based

Chain of Photoreceptor-specific nuclear receptor (Q9Y5X4 whole entry): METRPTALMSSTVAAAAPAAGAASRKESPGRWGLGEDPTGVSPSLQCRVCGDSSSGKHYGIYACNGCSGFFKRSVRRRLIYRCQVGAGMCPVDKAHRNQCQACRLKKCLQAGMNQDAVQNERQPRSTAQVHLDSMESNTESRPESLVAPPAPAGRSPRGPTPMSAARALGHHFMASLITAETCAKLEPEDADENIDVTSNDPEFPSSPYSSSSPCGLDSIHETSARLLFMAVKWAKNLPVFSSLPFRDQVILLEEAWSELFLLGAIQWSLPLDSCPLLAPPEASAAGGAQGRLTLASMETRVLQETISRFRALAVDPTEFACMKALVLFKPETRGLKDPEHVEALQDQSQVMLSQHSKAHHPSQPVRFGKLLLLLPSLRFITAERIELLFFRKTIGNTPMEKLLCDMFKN

COc1cnn(-c2ccccc2)c(=O)c1SCc1ccc(Cl)c(Cl)c1
IC50 [1]: 5 µM (active) | IC50 [2]: 5.85 µM (active)

COC(=O)c1ccc(C)c(NS(=O)(=O)c2ccc(OC)cc2)c1
EC50 [3]: 1.02 µM (active) | EC50 [4]: 1.61 µM (active) | EC50 [5]: 0.689 µM (inconclusive) | EC50 [6]: 0.834 µM (active) | EC50 [7]: 0.682 µM (active) | EC50 [8]: > 12 µM (not active) | EC50 [9]: < 0.1 µM (active) | EC50 [10]: 0.353 µM (inconclusive)

Cc1cc(C)c2c(N)c(C(=O)Nc3nccs3)sc2n1
EC50 [11]: > 67.5 µM (inactive) | EC50 [12]: > 67.5 µM (inactive) | EC50 [13]: > 50 µM (not active) | EC50 [14]: > 100 µM (not active)

C=CCn1c(C)cc(C(=O)CSc2ccc(NC(C)=O)cc2)c1C
EC50 [13]: > 50 µM (not active) | EC50 [14]: 0.77 µM (active)

CCc1c(C)sc(N=C(S)Nc2nc(C)cc(C)n2)c1C(=O)OC
IC50 [15]: > 66.2 µM (inactive) | IC50 [16]: 4.29 µM (active) | IC50 [17]: > 49.8 µM (inactive) | IC50 [18]: > 50 µM (inactive) | IC50 [19]: > 50 µM (not active) | IC50 [20]: 15 µM (inactive) | IC50 [21]: 2.23 µM (active)

CCOC(=O)N1CCN(CCC(=O)c2ccc(Cl)cc2)CC1
AC50 [22]: 12 µM (active) | IC50 [23]: > 50 µM (not active)

O=C(NCCO)c1cc2ccccc2cc1O
IC50 [19]: > 50 µM (not active)

O=C(CSc1ccc(-c2cccs2)nn1)N1CCCCCC1
IC50 [1]: 4.73 µM (active) | IC50 [2]: > 39.8 µM (not active)

CS(=O)(=O)N(CC(=O)N1CCC(C(N)=O)CC1)c1ccc(Oc2ccccc2)cc1
IC50 [1]: 1.05 µM (active) | IC50 [2]: 0.792 µM (active)

Oc1ccc(/C=N/Nc2nc(-c3ccc(Cl)cc3)cc(C(F)(F)F)n2)cc1
EC50 [24]: > 150 µM (not active) | EC50 [25]: 16.3 µM (active) | AC50 [26]: 31.7 µM (active) | CC50 [27]: 13.4 µM (active) | AC50 [22]: 4.06 µM (active) | EC50 [28]: 12.1 µM (active)

Cc1ccc(S(=O)(=O)N2C[C@@H]3N[C@H](C2)[C@H]3c2ccc(-c3ccncc3)cc2)cc1
AC50 [29]: 1.37 µM (active) | AC50 [30]: 1.26 µM (active) | AC50 [31]: 1.03 µM (active) | AC50 [32]: 82.3 µM (active) | AC50 [33]: 1.67 µM (active)

CCCN(C)C[C@H]1Oc2ncc(C#Cc3ccc(F)cc3)cc2C(=O)N([C@@H](C)CO)C[C@H]1C
AC50 [29]: 2.37 µM (active) | AC50 [30]: 2.14 µM (active) | AC50 [31]: 1.24 µM (active) | AC50 [32]: 24.3 µM (active) | AC50 [33]: 1.23 µM (active)

Cc1ccc(Nc2nccc(N(C)c3ccc4c(C)n(C)nc4c3)n2)cc1S(N)(=O)=O [PAZOPANIB]
IC50 [34]: > 10 µM (inactive) | IC50 [35]: > 10 µM (inactive)
